According to patent US20140171918A1, “USE OF A NOVEL SU[…]-FREE […] TO DELIVER TE[…] H[…]” (Bioject, Inc., priority 2012, published 2014):

What was measured:
[1] = Pharmacokinetic evaluation using testosterone levels after needle-free (Zetajet) subcutaneous self-injection; format: in vivo, human
Text: The goal of the study is to determine if a needle-free injector can consistently deliver frequent administrations (daily or three times weekly) of testosterone in a safe and effective manner. To answer this specific question, the study was designed to determine the efficacy (defined as testosterone serum levels, wetness, pain, and clinical questionnaire) of the combined product (cross labeled) of needle-free injection of testosterone cypionate hypogonadal men. This includes both objective (testosterone free and total levels) and subjective (pain and clinical questionnaire).
On Jan. 26, 2013, IRBS approved a modification of the CP-445 study. Due to a clear efficacy and patient acceptance at day 30, an extension of the study was requested to follow the fourteen subject's testosterone levels at a less frequent dosing interval and increased dosage. There was no deviation to the protocol as originally designed for day 0-30. Nor was there any deviation to the conduct of the study to day 120. This modification allowed following subjects out to day 120 on a Monday, Wednesday, Friday dosing of 50 mg of testosterone cypionate. Only T levels at day 60 and 120 were assessed.

[2] = system: hypogonadal men; experiment: Visual/verbal analog pain scale after needle-free injection
Protocol: Each subject was given thorough instruction on performing self needle-free injections with the Zetaj et. […] Pharmacokinetic evaluation using testosterone levels were obtained at specified intervals. Secondary endpoints, both objective and subjective, included E2 levels, pain score diaries, and AMS scores obtained before and after one month of treatment. A dose confirmation strategy was conducted to achieve likelihood of valid dose.
From day 60-90, all subjects were verified to have cottonseed vehicle in the commercially available formulation via Watson Pharmaceutical.

[3] = system: hypogonadal men; experiment: Aging Male Score (AMS) questionnaire before and after treatment; format: in vivo, human
Text: AMS scoring was based on a rating of symptom severity ranging from no symptoms with the lowest score of 1 to severe symptoms with a […].

[4] = system: hypogonadal men; experiment: Adverse events, injection site reactions and wetness after needle-free injection; format: in vivo, human
Text: Of the 14 patients 9 recorded symptoms of redness, 5 symptoms of bruising and one an induration. None of these reactions required medical follow up or dissuaded any patient from discontinuing treatment. See section on Preference for additional data on patient preference and comparison of needle-Free injection methods to needle and syringe. FIG. 5 depicts post injection site reactions as a percentage of the total number of injections for 14 patients over a 30 day period.
Wetness at the injection site is believed to be attributed to moisture on the tip of the syringe prior to the injection per recommended technique. Wetness with visible moisture flow at the site of the injection is thought to result from improper injection technique and a lack of fluid pressure in the nozzle because of the technique. Results for wetness varied across all patients. FIG. 7 depicts cumulative wetness results by category as a percentage of total injections.

C[C@]12CC[C@H]3[C@@H](CCC4=CC(=O)CC[C@@]43C)[C@@H]1CC[C@@H]2OC(=O)CCC1CCCC1 [testosterone cypionate]
course of free and total testosterone levels ([1]; 25 mg daily Zetajet injection, 6 hours to day 30): consistently rose from 6 hours to day 30 | average testosterone level of the men with supraphysiologic levels (above 975.0 ng/dl) ([1]; 25 mg daily Zetajet injection, day 30, four men): 1203 ng/dl | increase of free testosterone levels ([1]; 25 mg daily, from 8.76 ng/dl to 37.5 ng/dl): over four fold increase | average total testosterone levels of QODWO dosing lower than daily injections ([1]; QODWO 50 mg vs daily 25 mg): 35% | increase in testosterone levels ([1]; QODWO dosing at 50 mg): 3 fold | supraphysiologic levels of testosterone ([1]; QODWO dosing at 50 mg): no men had supraphysiologic levels | men with normal testosterone levels ([1]; QODWO dosing at 50 mg, men who completed the 120 day study extension): 11 out of 11 | average free testosterone level ([1]; after 25 mg daily injection, baseline average 8.76 ng/dl): 37.5 ng/dL | men with normal testosterone levels (primary endpoint) ([1]; at two weeks, 25 mg daily): 13/14 | increase in average testosterone levels from baseline ([1]; daily dosing regimen of 25 mg a day): over four fold increase | average testosterone level after correction to the normal range ([1]; three formerly supraphysiologic subjects continued on QODWO regimen (50 mg), extended study): 519 ng/dL | verbal analog pain score, average ([2]; five minutes after injection, scale 0-4, 25 mg daily needle-free injection): 0.54 | visual analog pain score, average ([2]; five minutes after injection, scale 0-10, 25 mg daily needle-free injection in the abdomen): 0.4 | verbal analog pain score ([2]; thirty minutes after injection, scale 0-4, 4 most painful): 0.26 | visual analog pain score ([2]; thirty minutes after injection, scale 0-10, 10 most painful): 0.14 | average AMS score after treatment ([3]; after one month of 25 mg daily, baseline average 50 points, thirteen of fourteen men): 25 points | average reduction in bothersome hypogonadal symptoms (AMS score) ([3]; after one month of treatment vs before): 50% | allergic response or major bruising ([4]; 100 mg/ml and 200 mg/ml commercially available formulations): No allergic response or major bruising | share of injections resulting in minor redness and bruising ([4]; 14 patients over 30 days): a quarter | severe adverse events ([4]; entire study (to day 120)): No severe adverse events | tolerability / safety in words ([4]; needle-free injection in hypogonadal men): well tolerated | patients who recorded an induration ([4]; of the 14 patients, 30 days): one | patients who recorded symptoms of bruising ([4]; of the 14 patients, 30 days): 5 | patients who recorded symptoms of redness ([4]; of the 14 patients, 30 days): 9
